Results published in US20120128639A1, “In Vitro Production Of Oligodendrocytes From Human Umbilical Cord Stem Cells” (UNIVERSITY OF CENTRAL FLORIDA RESEARCH FOUNDATION, INC., priority 2009, published 2012).
“And” between values parts separate entries of the source, which are not always exact repeats. Equal entries are not always repeated. “Also recorded” adds a separate entry of the source.

Tests used:
[1] = system: human multipotent progenitor cells (MLPCs) from umbilical cord; details: 3D environment; for need of the growth factor for process formation: presence or absence in medium
Experimental: MLPCs were seeded on DETA-coated glass coverslips (18 mm) at a density of 4×10^3 cells/cm^2 in growth medium. After 3 days, at about 60% confluency, cells were incubated for 24 hours in pre-induction medium, consisting of DMEM, 15% FBS. FGF-2, EGF (20 ng/ml each, R & D Systems, Minneapolis, Minn.) and PDGF-AA (10 ng/ml, Chemicon International, Temecula, Calif.). To initiate differentiation, the pre-induction medium was removed, the cells were washed 2× with Hanks' balanced salts solution (Gibco BRL) and transferred to serum-free differentiation medium.
Construction of 3D Environment MLPCs were plated on DETA-coated glass coverslips (18 mm) in growth medium. At about 60% confluence, growth medium was replaced with pre-induction medium. After the medium replacement, another set of coverslips was placed on the top of the cells. Prior to the placement, top coverslips were ethanol sterilized and washed in the pre-induction medium. After 24 hours the pre-induction medium was removed, the cells were washed 2× with Hanks' Balanced Salts Solution and transferred to serum-free differentiation medium.
Phase-contrast images were taken with a commercial Nikon Coolpix 990 camera using the Zeiss Axiovert S100 microscope. Pictures were analyzed using Scion Image Software (Scion Corp., Frederick, Md.).
The morphological and immunocytochemical quantification was performed on undifferentiated stem cells or cells during various differentiation stages. For each coverslip, at least 10 pictures were taken from randomly chosen views under 200× magnification. All the marker-positive cells were counted, as well as the total number of cells in these views. At least three coverslips in each group were quantified and data were expressed as average±standard deviation (SD). Statistical differences between different experimental groups were analyzed by Student's t-test.

α1-ARs = experiment: Immunocytochemical analysis of α1-AR expression in MLPCs; type: cell-based, human; details: undifferentiated MLPCs; 24 hrs treatment with bFGF alone
Experimental: (§1) To characterize cells by immunocytochemistry, the top coverslips, if present, were first carefully removed. Cells were then briefly washed with Hanks' balanced salts solution and fixed in 4% paraformaldehyde for about 18 min. Fixed cells were stored in PBS, permeabilized with 0.5% Triton 100× in PBS for 7 min. blocked with 5% donkey serum for 1 hr, followed by incubation with primary antibody overnight at 4° C. Primary antibodies were mouse monoclonal A2B5 (MAB312, 1:250). O4 (MAB345, 1:100). O1 (MAB344, 1:200), MBP (1:25), rabbit polyclonal anti-galactocerebroside (AB142, 1:200), all from Chemicon, mouse monoclonal beta-2-AR (sc-81577, 1:200), rabbit polyclonal beta-1AR (sc-567, 1:250) from Santa Cruz Biotechnology, and alpha-1-AR (ab3462, 1:1000, Abcam Inc. Cambridge, Mass.). Following a PBS washing, cells were incubated with an Alexa Fluor 488-conjugated anti-mouse IgG or Alexa Fluor 488-conjugated anti-rabbit IgG for 2 hours at room temperature. After a PBS washing, the coverslips were mounted with Vectashield mounting medium (H1000, Vector Laboratories, Burlingame, Calif.) onto slides. For visualizing cellular nuclei, the specimens were counterstained with DAPI. Immunoreactivity was observed and analyzed by using an Ultra VIEW™ LCI confocal imaging system (Perkin Elmer).

[2] = system: human multipotent progenitor cells (MLPCs) from umbilical cord; experiment: Immunocytochemical analysis of MLPC differentiation in 3D environment (NE or AR agonists); type: cell-based; details: for cells stained positively for A2B5 / cells stained positively for MBP / cells stained positively for O1 galactocerebroside / cells stained positively for O4: 30 days of differentiation, 20 μM added daily
Experimental: To characterize cells by immunocytochemistry, the top coverslips, if present, were first carefully removed. […] Cambridge, Mass.). Following a PBS washing, cells were incubated with an Alexa Fluor 488-conjugated anti-mouse IgG or Alexa Fluor 488-conjugated anti-rabbit IgG for 2 hours at room temperature. After a PBS washing, the coverslips were mounted with Vectashield mounting medium ([…], Vector Laboratories, Burlingame, Calif.) onto slides. For visualizing cellular nuclei, the specimens were counterstained with DAPI. Immunoreactivity was observed and analyzed by using an Ultra VIEWTM LCI confocal imaging system (Perkin Elmer).

[3] = system: human multipotent progenitor cells (MLPCs) from umbilical cord; experiment: Immunocytochemical analysis of MLPC differentiation into oligodendrocyte lineage in 2D environment; type: cell-based
Experimental: as §1

[4] = system: human multipotent progenitor cells (MLPCs) from umbilical cord; experiment: Morphological analysis of MLPC differentiation in 2D environment; type: cell-based; details: for need of the factor for the desired morphology (omission from differentiation medium): 15 days in differentiation medium
Experimental: MLPCs were seeded on DETA-coated glass coverslips (18 mm) at a density of 4×10^3 cells/cm^2 in growth medium. After 3 days, at about 60% confluency, cells were incubated for 24 hours in pre-induction medium, consisting of DMEM, 15% FBS. […] To initiate differentiation, the pre-induction medium was removed, the cells were washed 2× with Hanks' balanced salts solution (Gibco BRL) and transferred to serum-free differentiation medium.

[5] = 8 days of differentiation, differentiation medium with 20 μM NE

PDGF
need of the growth factor for process formation [1]: required

bFGF: growth factor in pre-induction and differentiation medium
need of the growth factor for process formation [1]: not essential | nuclear expression of α1-ARs (α1-ARs): significant increase in staining intensity; also recorded: increase nuclear expression of α1-ARs

CC(C)NCC(O)c1ccc(O)c(O)c1 (centres unmarked) [isoproterenol]
cells stained positively for A2B5 [2]: 57.9±4.9% | cells stained positively for MBP [2]: negative | cells stained positively for O1 galactocerebroside [2]: negative | cells stained positively for O4 [2]: 42.5±2.7% | cells displaying a bipolar morphology ([1]; daily treatment, first 15 days, unchanged within 30 days): approximately 60%

NC[C@H](O)c1ccc(O)c(O)c1 [NE, norepinephrine]
MBP staining ([2]; 20 days of differentiation): negative | O1 staining ([2]; 20 days of differentiation): negative | cells stained positively for A2B5 [2]: 57.7% and 57.7±3.6% | cells stained positively for MBP [2]: 15.2% and 15.2±0.5% | cells stained positively for O4 [2]: 79.6% and 79.6±2.9% | expression of MBP ([3]; 8 days of differentiation): absent | cells with positive staining for A2B5 [3, 5]: 72.4% and 72.4±3.4% | cells with positive staining for O4 [3, 5]: 69.9% and 69.9±4.9% | cells with positive staining for A2B5 ([3]; day 15 of differentiation): 70.3% | cells with positive staining for O4 ([3]; day 15 of differentiation): 69.7% | MBP staining ([3]; day 20 of differentiation): negative | O1 staining ([3]; day 20 of differentiation): negative | cells A2B5 positive ([3]; day 20 of differentiation): 35.0% and 35.0±4.8% | cells O4 positive ([3]; day 20 of differentiation): 49.7% and 49.7±7.9% | expression of MBP ([3]; differentiating cells, time not stated (FIG. 3B)): absent | survival of differentiated cells in culture [1]: more than 40 days | need of the factor for the desired morphology (omission from differentiation medium) [4]: essential | cells that developed multiple processes ([4]; within 8 days of differentiation): approximately 70%

COC(=O)[C@@]1(O)C[C@H]2O[C@]1(C)n1c3ccccc3c3c4c(c5c6ccccc6n2c5c31)C(=O)NC4 [K252a]
need of the factor for the desired morphology (omission from differentiation medium) [4]: essential

CNC[C@H](O)c1cccc(O)c1 [phenylephrine]
cells stained positively for A2B5 [2]: 40.5±3.4% | cells stained positively for O1 galactocerebroside [2]: 15.2±1.5% | cells stained positively for O4 [2]: 39.8±2.8% | cells with more mature morphology with developed processes ([1]; day 30): 10% and 15% | cells that began to develop processes ([1]; within 15 days of differentiation): approximately 40%
